We go through 22 compounds from US10905120B2, “ABA receptor agonists that modulate transpiration” (The Regents of the University of California, priority 2016, dated 2021).

Molecules are shown by their SMILES. ≈ marks a conversion by molar mass, not a printed value. Where two headings read alike, the source gives them in different places.

The target in one experiment is T1, PYR1 (Arabidopsis thaliana, UniProt O49686).
T1 sequence (O49686 1-191): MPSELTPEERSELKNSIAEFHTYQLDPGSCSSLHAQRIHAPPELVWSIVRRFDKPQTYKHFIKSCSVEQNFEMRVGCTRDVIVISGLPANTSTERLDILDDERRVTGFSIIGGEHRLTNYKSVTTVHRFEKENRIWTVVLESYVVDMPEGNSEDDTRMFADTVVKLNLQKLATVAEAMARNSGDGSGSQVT
T1 sequence (Q9CAJ0 23-511 partner): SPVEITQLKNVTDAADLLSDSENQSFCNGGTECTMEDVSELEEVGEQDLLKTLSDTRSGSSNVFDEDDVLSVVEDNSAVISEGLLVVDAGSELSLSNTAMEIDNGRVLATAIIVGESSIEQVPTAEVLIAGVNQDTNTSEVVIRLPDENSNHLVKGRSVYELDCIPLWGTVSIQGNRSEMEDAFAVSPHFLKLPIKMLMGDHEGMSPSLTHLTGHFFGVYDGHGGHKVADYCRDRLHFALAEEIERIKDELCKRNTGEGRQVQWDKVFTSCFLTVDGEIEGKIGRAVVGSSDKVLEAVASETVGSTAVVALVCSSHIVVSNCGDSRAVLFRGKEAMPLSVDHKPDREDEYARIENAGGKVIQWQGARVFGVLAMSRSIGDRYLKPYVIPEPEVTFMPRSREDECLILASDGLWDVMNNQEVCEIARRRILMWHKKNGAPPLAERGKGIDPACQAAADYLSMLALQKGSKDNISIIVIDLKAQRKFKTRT
Kind of experiment: PP2C inhibition assay, recombinant PYR1 receptor. Type of experiment: biochemical. The method, then: (§1) Reactions were started by adding 40 μL of a reaction solution containing 25 mM 4-nitrophenyl phosphate in assay buffer, after which absorbance measurements were immediately collected using a 405 nm on Wallac plate reader. Reactions contained 100 nM PP2C and 200 nM PYR/PYL proteins. […] The dose response data was fitted to a log (inhibitor) vs response-(variable slope) model using non-linear regression to infer the IC50 values using Graph Pad Prism 6.0.

A further experiment concerns the target T2, PYL2 (Arabidopsis thaliana, UniProt O80992).
T2 sequence (O80992 1-190): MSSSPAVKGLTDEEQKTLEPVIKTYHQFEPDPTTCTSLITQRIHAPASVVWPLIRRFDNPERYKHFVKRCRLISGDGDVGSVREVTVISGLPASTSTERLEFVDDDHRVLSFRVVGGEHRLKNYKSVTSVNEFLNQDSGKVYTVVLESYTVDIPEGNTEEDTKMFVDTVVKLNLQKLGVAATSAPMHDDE
T2 sequence (Q9CAJ0 23-511 partner): T1 sequence (Q9CAJ0 23-511 partner)
Kind of experiment: PP2C inhibition assay, recombinant PYL2 receptor. Type of experiment: biochemical. On the procedure:
as §1

Experiment [1] deals with Arabidopsis thaliana seeds. Description: Germination assay. The class given is in vivo. The conditions noted are these: Minimal Inhibitory Concentration, 3 d in darkness after 4 d stratification. The method, then: Germination experiments were performed with Arabidopsis thaliana seeds of wildtype Col0, Ler, or mutant backgrounds.
Seeds were sterilized by 30 sec incubation in 70% ethanol solution followed by a 5 min […] (while vigorously shaking) in a bleach-Tween solution. Afterwards, the sterilizing solutions were removed, and five washes were performed with sterile distilled water. To enhance complete removal of the solutions between the different steps, short centrifuge spins were performed. Finally, the now surface-sterilized seeds were re-suspended in an aseptic 0.1% agar solution to simplify distribution over multiwall plates. One drop of the solution contained on average 20-30 seeds.
In the multiwell plates, seeds were plated onto 0.7% agar Murashige amd Skoog (MS) plant growth medium containing one-half MS salts and 0.5% sucrose containing different concentrations of ABA, quinabactin, or the compound of interest. After 4 d of stratification at 4° C., the plates were transferred to a growth chamber in darkness and allowed to germinate for 3 d before germination was evaluated. The results are shown above in Table 1 and FIGS. 3A and 3B.

Setting [2] is: recombinant receptor 200 nM, PP2C 100 nM, 4-nitrophenyl phosphate substrate, absorbance 405 nm, read-out: IC50 PYR1.
The mark [3] stands for this setting: recombinant receptor 200 nM, PP2C 100 nM, 4-nitrophenyl phosphate substrate, absorbance 405 nm, read-out: IC50 PYL2.

The IC50 is the concentration at which inhibition is half-maximal. Regarding `Cc1cc(NS(=O)(=O)Cc2ccc(Cl)cc2)cc(C)c1C#N` [Ligand Q22, 1-(4-Chlorophenyl)-N-(4-cyano-3,5-dimethylphenyl)methanesulfonamide], the IC50 at PYR1 (setting [2]) was 0.197 ± 0.009 µM; at PYL2 (setting [3]), 5.63 ± 0.8 µM. Further, the “MIC (μM) Germination” value in experiment [1] turned out to be 10 µM (≈ 3.35 µg/mL).
Consider `N#Cc1ccc(NS(=O)(=O)Cc2ccc([N+](=O)[O-])cc2)cc1C(F)(F)F` [Ligand Q5, N-[4-Cyano-3-(trifluoromethyl)phenyl]-1-(4-nitrophenyl)methanesulfonamide], for which the IC50 at PYR1 was 8.24 ± 0.52 µM; on PYL2, greater than 50 µM. The “MIC (μM) Germination” value in experiment [1] was greater than 25 µM.
For `Cc1cc(NS(=O)(=O)Cc2ccc(C3CC3)cc2)cc(C)c1C#N` [Ligand Q23, N-(4-Cyano-3,5-dimethylphenyl)-1-(4-cyclopropylphenyl)methanesulfonamide], the IC50 at PYR1 (setting [2]) turned out to be 0.203 ± 0.025 µM; at PYL2 (setting [3]) it was 20.1 ± 1.46 µM. Moreover, the “MIC (μM) Germination” value in experiment [1] amounted to 10 µM (≈ 3.4 µg/mL).
With `Cc1ccc(CS(=O)(=O)Nc2ccc(C#N)c(C)c2)cc1` [Ligand Q1, N-(4-Cyano-3-methylphenyl)-1-(4-methylphenyl)methanesulfonamide], the IC50 at PYR1 (setting [2]) worked out at 0.246 ± 0.06 µM; on PYL2 (setting [3]), 20 ± 1.08 µM. Further, the “MIC (μM) Germination” value in experiment [1] is 10 µM (≈ 3 µg/mL).
In the case of `Cc1ccc(CS(=O)(=O)Nc2ccc(C#N)c(Cl)c2)cc1` [Ligand Q2, N-(3-Chloro-4-cyanophenyl)-1-(4-methylphenyl)methanesulfonamide], the IC50 is 3.91 ± 0.122 µM on PYR1 and greater than 50 µM at PYL2. Moreover, in experiment [1], the “MIC (μM) Germination” value is 25 µM (≈ 8.02 µg/mL).
For `Cc1ccc(CS(=O)(=O)Nc2cc(C(F)(F)F)c(C#N)c(C(F)(F)F)c2)cc1` [Ligand Q14, N-(4-Cyano-3,5-(bistrifluoromethyl)phenyl)-1-(4-methylphenyl) methanesulfonamide], the IC50 at PYR1 (setting [2]) and on PYL2 (setting [3]) was greater than 50 µM in each case. In experiment [1], the “MIC (μM) Germination” value is greater than 25 µM.
On to `CC(=O)Nc1ccc(NS(=O)(=O)Cc2ccc(C)cc2)cc1C(F)(F)F` [Ligand Q10, N-[4-{[(4-Methylbenzyl)sulfonyl]amino}-2-(trifluoromethyl)phenyl]acetamide], for which the IC50 on PYR1 (setting [2]) and at PYL2 (setting [3]) was greater than 50 µM in each case. In experiment [1], the “MIC (μM) Germination” value was greater than 25 µM.
Take `Cc1ccc(CS(=O)(=O)Nc2cc(C)c(C#N)c(C)c2)cc1` [Ligand Q15, N-(4-Cyano-3,5-dimethylphenyl)-1-(4-methylphenyl)methanesulfonamide]: the 50% inhibitory concentration (IC50) came out at 0.098 ± 0.007 µM on PYR1 (setting [2]) and 2.58 ± 0.222 µM on PYL2 (setting [3]). In experiment [1], the “MIC (μM) Germination” value worked out at 10 µM (≈ 3.14 µg/mL).
Consider `Cc1ccc(CS(=O)(=O)Nc2ccc(C#N)c(Br)c2)cc1` [Ligand Q3, N-(3-Bromo-4-cyanophenyl)-1-(4-methylphenyl)methanesulfonamide], for which the IC50 on PYR1 (setting [2]) was 2.5 ± 0.151 µM; at PYL2 (setting [3]), greater than 50 µM. Moreover, the “MIC (μM) Germination” value in experiment [1] was greater than 25 µM.
For `Cc1ccc(CS(=O)(=O)Nc2cc(C(F)(F)F)c(C#N)cc2[N+](=O)[O-])cc1` [Ligand Q17, N-[4-Cyano-2-nitro-5-(trifluoromethyl)phenyl]-1-(4-methylphenyl) methanesulfonamide], the IC50 at PYR1 (setting [2]) and at PYL2 (setting [3]) was greater than 50 µM throughout. Besides, the “MIC (μM) Germination” value in experiment [1] is greater than 25 µM.
For `N#Cc1ccc(NS(=O)(=O)Cc2ccc(Br)cc2)cc1C(F)(F)F` [Ligand Q7, 1-(4-Bromophenyl)-N-[4-cyano-3-(trifluoromethyl)phenyl]methanesulfonamide], the IC50 was determined as 0.326 ± 0.0077 µM at PYR1 and 31.4 ± 3.4 µM at PYL2. Also, the “MIC (μM) Germination” value in experiment [1] came to 10 µM (≈ 4.19 µg/mL).
For the compound `CCCN1C(=O)CCc2cc(NS(=O)(=O)Cc3ccc(C)cc3)ccc21` [QB, Quinabactin, reference compound], the “MIC (μM) Germination” value in experiment [1] was determined as 3 µM (≈ 1.12 µg/mL).
Regarding `Cc1ccc(CS(=O)(=O)Nc2cc(C(F)(F)F)c(C#N)cc2N)cc1` [Ligand Q18, N-[2-Amino-4-cyano-5-(trifluoromethyl)phenyl]-1-(4-methylphenyl) methanesulfonamide], the IC50 on PYR1 (setting [2]) and on PYL2 (setting [3]) was greater than 50 µM in each case. The “MIC (μM) Germination” value in experiment [1] is greater than 25 µM.
As for `CCCN(C(C)=O)c1ccc(NS(=O)(=O)Cc2ccc(C)cc2)cc1C(F)(F)F` [Ligand Q11, N-[4-{[(4-Methylbenzyl)sulfonyl]amino}-2-(trifluoromethyl)phenyl]-N-propylacetamide], the IC50 at PYR1 (setting [2]) and at PYL2 (setting [3]) was greater than 50 µM in each case. Further, the “MIC (μM) Germination” value in experiment [1] was greater than 25 µM.
As to `Cc1ccc(CS(=O)(=O)Nc2cc(C)c(C#N)c(C3CC3)c2)cc1` [Ligand Q28, N-(4-Cyano-3-cyclopropyl-5-methylphenyl)-1-(4-methylphenyl) methanesulfonamide], the IC50 at PYR1 (setting [2]) turned out to be 0.21 ± 0.036 µM; on PYL2 (setting [3]), 1.66 ± 0.046 µM. Besides, the “MIC (μM) Germination” value in experiment [1] turned out to be 10 µM (≈ 3.4 µg/mL).
The like results for `Cc1ccc(CS(=O)(=O)Nc2cc(C)c(C#N)c(Br)c2)cc1` [Ligand Q25, N-(3-Bromo-4-cyano-5-methylphenyl)-1-(4-methylphenyl)methanesulfonamide] were, in that order, 0.355 ± 0.034 µM, 16.7 ± 0.788 µM and 25 µM (≈ 9.48 µg/mL).
Regarding `Cc1cc(NS(=O)(=O)Cc2ccc(C(F)(F)F)cc2)ccc1C#N` [Ligand Q13, N-(4-Cyano-3-methylphenyl)-1-[4-(trifluoromethyl)phenyl]methanesulfonamide], the values for the IC50 on PYR1 (setting [2]) and on PYL2 (setting [3]) were 1.1 ± 0.183 µM and greater than 50 µM, respectively. For the same compound, in experiment [1], the “MIC (μM) Germination” value was greater than 25 µM.
For `Cc1cc(NS(=O)(=O)Cc2ccc(Br)cc2F)cc(C)c1C#N` [Ligand Q24, 1-(4-Bromo-2-fluorophenyl)-N-(4-cyano-3,5-dimethylphenyl)methanesulfonamide], the 50% inhibitory concentration (IC50) at PYR1 was found to be 0.188 ± 0.019 µM; at PYL2 it was 11.9 ± 1.47 µM. Further, the “MIC (μM) Germination” value in experiment [1] turned out to be 10 µM (≈ 3.97 µg/mL).
With `Cc1ccc(CS(=O)(=O)Nc2ccc(C#N)c(C(F)(F)F)c2)cc1` [Ligand Q4, N-(4-Cyano-3-(trifluoromethyl)-phenyl)-1-(4-methylphenyl)methanesulfonamide], the results for the IC50 on PYR1 and at PYL2 were 0.258 ± 0.019 µM and 9.58 ± 0.102 µM, respectively. Besides, the “MIC (μM) Germination” value in experiment [1] was determined as 10 µM (≈ 3.54 µg/mL).
Turning to `N#Cc1ccc(NS(=O)(=O)Cc2ccc(N)cc2)cc1C(F)(F)F` [Ligand Q6, 1-(4-Aminophenyl)-N-[4-cyano-3-(trifluoromethyl)phenyl]methanesulfonamide], the 50% inhibitory concentration (IC50) at PYR1 is 3.4 ± 0.2 µM; at PYL2, greater than 50 µM. Besides, in experiment [1], the “MIC (μM) Germination” value is greater than 25 µM.
As for `COc1cc(NS(=O)(=O)Cc2ccc(C)cc2)ccc1C#N` [Ligand Q20, N-(4-Cyano-3-methoxyphenyl)-1-(4-methylphenyl)methanesulfonamide], the concentration for half-maximal inhibition (IC50) on PYR1 (setting [2]) worked out at 0.13 ± 0.009 µM; on PYL2 (setting [3]), 11.8 ± 1.12 µM. The “MIC (μM) Germination” value in experiment [1] was found to be 5 µM (≈ 1.58 µg/mL).
In the case of `N#Cc1ccc(NS(=O)(=O)Cc2ccc(C(F)(F)F)cc2)cc1C(F)(F)F` [Ligand Q9, N-[4-Cyano-3-(trifluoromethyl)phenyl]-1-[4-(trifluoromethyl)phenyl]methanesulfonamide], the IC50 is 3.4 ± 0.27 µM on PYR1 and greater than 50 µM on PYL2. Further, the “MIC (μM) Germination” value in experiment [1] amounted to 10 µM (≈ 4.08 µg/mL).
